The supplement of paper PMC13380429

How the values were obtained:
[1] = system: Calu-3; assay: drug sensitivity score (DSS) for viability; higher = more toxic; extreme values may be limits of the assay; conditions: 72 h
[2] = system: U2OS; assay: as above; conditions: 72 h
[3] = system: HepG2; assay: as above; conditions: 72 h
[4] = system: Vero E6; assay: as above; conditions: 72 h
[5] = system: Caco-2; assay: as above; conditions: 72 h
[6] = system: Calu-3; assay: cell viability relative to DMSO; higher = less toxic; conditions: 72 h
[7] = system: U2OS; assay: as above; conditions: 72 h
[8] = system: HepG2; assay: as above; conditions: 72 h
[9] = system: Vero E6; assay: as above; conditions: 72 h
[10] = system: Caco-2; assay: as above; conditions: 72 h
[11] = system: Calu-3; assay: relative viability EC50 (midpoint between 100% and the lowest measured viability); higher = less toxic; conditions: 72 h
[12] = system: U2OS; assay: as above; conditions: 72 h
[13] = system: HepG2; assay: as above; conditions: 72 h
[14] = system: Vero E6; assay: as above; conditions: 72 h
[15] = system: Caco-2; assay: as above; conditions: 72 h
[16] = system: A549-ACE2 infected with SARS-CoV-2; assay: cell count relative to DMSO; higher = less toxic; conditions: 24 h
[17] = system: A549-ACE2; assay: drug-induced phospholipidosis relative to tamoxifen; higher = more phospholipidosis
[18] = system: A549-ACE2 infected with SARS-CoV-2; assay: SARS-CoV-2 infection rate relative to DMSO; higher = more infection; conditions: 24 h
[19] = system: A549-ACE2 infected with SARS-CoV-2; assay: morphology score (similarity to uninfected cells); higher = more like uninfected cells; conditions: 24 h

CC[C@H](C)[C@H](N)C1=N[C@H](C(=O)N[C@@H](CC(C)C)C(=O)N[C@H](CCC(=O)O)C(=O)N[C@H](C(=O)N[C@H]2CCCCNC(=O)[C@H](CC(N)=O)NC(=O)[C@@H](CC(=O)O)NC(=O)[C@H](Cc3cnc[nH]3)NC(=O)[C@@H](Cc3ccccc3)NC(=O)[C@H]([C@@H](C)CC)NC(=O)[C@@H](CCCN)NC2=O)[C@@H](C)CC)CS1 [bacitracin]
Conditions	drug sensitivity score	relative viability EC50 [µM]
[1]	0	–
[2]	0	–
[3]	0	–
[4]	0	–
[5]	0	–
[11]	–	> 10
[12]	–	> 10
[13]	–	> 10
[14]	–	> 10
[15]	–	> 10

cell viability [%]
Conditions	[6]	[7]	[8]	[9]	[10]
1 nM	103	95.8	100	102	104
10 nM	96.4	96.3	99	96.2	104
100 nM	97.7	98.9	99.4	103	90.4
1000 nM	99.5	98.9	103	114	106
10000 nM	97.8	102	104	110	119

O=c1[nH]cnc2c1ncn2[C@H]1CC[C@@H](CO)O1 [didanosine]
Conditions	drug sensitivity score	relative viability EC50 [µM]
[1]	0	–
[2]	0	–
[3]	0	–
[4]	0	–
[5]	0	–
[11]	–	> 10
[12]	–	> 10
[13]	–	> 10
[14]	–	> 10
[15]	–	> 10

cell viability [%]
Conditions	[6]	[7]	[8]	[9]	[10]
1 nM	96.3	99.4	99.6	96	107
10 nM	85	93.6	84.8	97.3	88.7
100 nM	114	102	90.7	95.2	97.9
1000 nM	106	101	90.8	98	85.3
10000 nM	99.9	107	105	107	108

OCCN1C[C@H](O)[C@@H](O)[C@H](O)[C@H]1CO [miglitol]
Conditions	SARS-CoV-2 infection rate, [18] [%]	cell count, [16] [%]	cell viability, [6] [%]	cell viability, [7] [%]	cell viability, [8] [%]	cell viability, [10] [%]	morphology score, [19]
1 nM	–	–	97.8	105	94.6	98.8	–
10 nM	–	–	95.7	99	114	99.2	–
100 nM	–	–	95.1	102	89.6	96.1	–
0.3 µM	94	106	–	–	–	–	0.36
1000 nM	–	–	110	98.5	103	101	–
3 µM	102	100	–	–	–	–	0.01
10 µM	103	100	–	–	–	–	0.02
10000 nM	–	–	96.2	103	101	94.7	–
30 µM	111	89	–	–	–	–	-0.07

Conditions	drug sensitivity score	relative viability EC50 [µM]
[1]	0	–
[2]	0	–
[3]	0	–
[5]	0	–
[11]	–	> 10
[12]	–	> 10
[13]	–	> 10
[15]	–	> 10

drug-induced phospholipidosis [%], [17]
Conditions	0.3 µM	0.833333 µM	3.33333 µM	6.66667 µM	10 µM	30 µM
24 h	3.38	-3.48	-1.06	-1.04	-2.08	-1.27
48 h	2.53	-2.84	1.36	1.25	2.47	2.29
72 h	3.37	-2.2	1.06	-0.466	0.978	2.7
